Source: patent publication US9260408B2, “Dihydroquinoline-2-one derivatives” (Hoffmann-La Roche Inc., priority 2011, dated 2016)
Counter-ions that a name gives are not always drawn.

Tests used:
human CYP11B1 = molecular target: T1, human CYP11B1 (Homo sapiens, UniProt P15538); assay: G-402 cellular enzyme assay, human CYP11B1 (cortisol release, HTRF); type: cell-based; details: G-402 cells expressing human CYP11B1; 1 μM Deoxycortisol
T1 construct: expressed in transfected cells
T1 sequence (P15538 25-503): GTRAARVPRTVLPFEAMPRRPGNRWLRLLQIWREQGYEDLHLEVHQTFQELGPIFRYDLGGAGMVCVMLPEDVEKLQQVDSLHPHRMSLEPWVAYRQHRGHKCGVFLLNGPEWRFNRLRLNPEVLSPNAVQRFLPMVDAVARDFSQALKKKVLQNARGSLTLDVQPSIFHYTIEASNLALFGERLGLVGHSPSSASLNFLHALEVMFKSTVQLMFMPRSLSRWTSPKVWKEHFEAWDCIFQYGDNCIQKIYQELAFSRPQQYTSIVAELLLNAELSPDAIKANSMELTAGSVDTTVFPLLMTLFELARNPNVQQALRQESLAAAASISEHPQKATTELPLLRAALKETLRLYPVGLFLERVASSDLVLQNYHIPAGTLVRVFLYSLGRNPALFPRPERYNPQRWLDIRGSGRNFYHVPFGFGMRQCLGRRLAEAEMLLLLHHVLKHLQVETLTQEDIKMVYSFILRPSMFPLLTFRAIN
Procedure, shortened: (§1)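 EC50 comes from least-squares fitting of a 4-parameter MMF curve to steroid product levels, measured by HTRF as aldosterone for CYP11B2 or cortisol for CYP11B1. Stably transfected G-402 host cells were given substrate (1 μM deoxycorticosterone or deoxycortisol, respectively) with inhibitor for 16 h in medium with 2.5% charcoal-treated FCS.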

human CYP11B2 = molecular target: T2, human CYP11B2 (Homo sapiens, UniProt P19099); assay: G-402 cellular enzyme assay, human CYP11B2 (aldosterone release, HTRF); type: cell-based; details: G-402 cells expressing human CYP11B2; 1 μM Deoxycorticosterone
T2 construct: expressed in transfected cells
T2 sequence (P19099 25-503): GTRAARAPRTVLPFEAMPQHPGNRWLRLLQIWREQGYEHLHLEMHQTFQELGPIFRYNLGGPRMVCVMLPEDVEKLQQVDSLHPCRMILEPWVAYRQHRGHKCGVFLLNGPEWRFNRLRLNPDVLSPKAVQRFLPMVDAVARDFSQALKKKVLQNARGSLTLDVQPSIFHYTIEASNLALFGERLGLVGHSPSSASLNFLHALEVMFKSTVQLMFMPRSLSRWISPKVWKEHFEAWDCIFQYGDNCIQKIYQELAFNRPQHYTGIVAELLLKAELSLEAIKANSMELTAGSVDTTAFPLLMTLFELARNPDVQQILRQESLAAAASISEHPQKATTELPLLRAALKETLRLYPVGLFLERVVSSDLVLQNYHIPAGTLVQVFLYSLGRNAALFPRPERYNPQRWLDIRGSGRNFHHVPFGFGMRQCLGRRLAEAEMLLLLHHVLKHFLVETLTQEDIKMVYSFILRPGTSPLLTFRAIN
Procedure, shortened: as §1

Compound: CN1C(=O)CCc2cc(-c3cncc(OCCNC(=O)OC(C)(C)C)c3)c(F)cc21 [Example 232, {2-[5-(7-Fluoro-1-methyl-2-oxo-1,2,3,4-tetrahydro-quinolin-6-yl)-pyridin-3-yloxy]-ethyl}-carbamic acid tert-butyl ester]
- EC50 (human CYP11B1): 16 nM
- EC50 (human CYP11B2): 1 nM

Compound: CN1C(=O)CCc2cc(-c3cncc(NCc4ccccc4)c3)ccc21 [Example 12]
- EC50 (human CYP11B1): 50 nM
- EC50 (human CYP11B2): 2 nM

Compound: CN1C(=O)CCc2cc(-c3cncc(OCCNC(=O)c4ncccc4Cl)c3)ccc21 [Example 233, 3-Chloro-pyridine-2-carboxylic acid {2-[5-(1-methyl-2-oxo-1,2,3,4-tetrahydro-quinolin-6-yl)-pyridin-3-yloxy]-ethyl}-amide]
- EC50 (human CYP11B1): 219 nM
- EC50 (human CYP11B2): 13 nM

Compound: CN1C(=O)CCc2cc(-c3cncc(N4C(=O)CC[C@H]4CO)c3)ccc21 [Example 13]
- EC50 (human CYP11B1): 17900 nM
- EC50 (human CYP11B2): 319 nM

Compound: CN1C(=O)CCc2cc(-c3cncc(N4CC5(CN(C(=O)OC(C)(C)C)C5)C4)n3)ccc21 [Example 28, 6-[6-(1-methyl-2-oxo-1,2,3,4-tetrahydro-quinolin-6-yl)-pyrazin-2-yl]-2,6-diaza-spiro[3.3]heptane-2-carboxylic acid tert-butyl ester]
- EC50 (human CYP11B1): 780 nM
- EC50 (human CYP11B2): 121 nM

Compound: CCC(=O)N1CC[C@H](Oc2cncc(-c3cc4c(cc3F)N(C)C(=O)CC4)c2)C1 [Example 122]
- EC50 (human CYP11B1): 535 nM
- EC50 (human CYP11B2): 9 nM

Compound: CCS(=O)(=O)NCc1cncc(-c2ccc3c(c2)CCC(=O)N3)c1 [Example 55, ethanesulfonic acid [5-(2-oxo-1,2,3,4-tetrahydro-quinolin-6-yl)-pyridin-3-ylmethyl]-amide]
- EC50 (human CYP11B1): 11100 nM
- EC50 (human CYP11B2): 682 nM

Compound: CC(=O)OCC(=O)Nc1cncc(-c2ccc3c(c2)CCC(=O)N3C)c1 [Example 2, Acetic acid [5-(1-methyl-2-oxo-1,2,3,4-tetrahydro-quinolin-6-yl)-pyridin-3-ylcarbamoyl]-methyl ester]
- EC50 (human CYP11B1): > 3000 nM
- EC50 (human CYP11B2): 430 nM

Compound: CN1C(=O)CCc2cc(-c3cncc(CN)c3Cl)ccc21 [Example 218, 6-(5-Aminomethyl-4-chloro-pyridin-3-yl)-1-methyl-3,4-dihydro-1H-quinolin-2-one hydrochloride]
- EC50 (human CYP11B1): 1200 nM
- EC50 (human CYP11B2): 29 nM

Compound: CN1C(=O)CCc2cc(-c3cncc(NCCO)c3)ccc21 [Example 4, 6-[5-(2-Hydroxy-ethylamino)-pyridin-3-yl]-1-methyl-3,4-dihydro-1H-quinolin-2-one]
- EC50 (human CYP11B1): 350 nM
- EC50 (human CYP11B2): 11 nM

Compound: CC(N[S@+]([O-])C(C)(C)C)c1cncc(-c2ccc3c(c2)CCC(=O)N3C)c1 (single isomer, unassigned) [Example 56, (R)-2-Methyl-propane-2-sulfinic acid {(S or R)-1-[5-(1-methyl-2-oxo-1,2,3,4-tetrahydro-quinolin-6-yl)-pyridin-3-yl]-ethyl}-amide]
- EC50 (human CYP11B1): 587 nM
- EC50 (human CYP11B2): 40 nM

Compound: CN1C(=O)CCc2cc(-c3cncc(CNC(=O)c4ccc(Cl)nn4)c3)ccc21 [Example 104]
- EC50 (human CYP11B1): 94 nM
- EC50 (human CYP11B2): 10 nM

Compound: COc1ccc(C(=O)NCc2cncc(-c3ccc4c(c3)CCC(=O)N4C)c2)nn1 [Example 100]
- EC50 (human CYP11B1): 140 nM
- EC50 (human CYP11B2): 7 nM

Compound: Cc1c(CN[S@+]([O-])C(C)(C)C)cncc1-c1cc2c(cc1F)N(C)C(=O)CC2 [Example 225, (R)-2-Methyl-propane-2-sulfinic acid [5-(7-fluoro-1-methyl-2-oxo-1,2,3,4-tetrahydro-quinolin-6-yl)-4-methyl-pyridin-3-ylmethyl]-amide]
- EC50 (human CYP11B1): 691 nM
- EC50 (human CYP11B2): 6 nM

Compound: Cc1nn(C)cc1C(=O)NCc1cncc(-c2ccc3c(c2)CCC(=O)N3C)c1 [Example 98]
- EC50 (human CYP11B1): 360 nM
- EC50 (human CYP11B2): 11 nM

Compound: CCS(=O)(=O)NC(C)c1cncc(-c2cc3c(cc2F)N(C)C(=O)CC3)c1 (single isomer, unassigned) [Example 190, Ethanesulfonic acid {(R or S)-1-[5-(7-fluoro-1-methyl-2-oxo-1,2,3,4-tetrahydro-quinolin-6-yl)-pyridin-3-yl]-ethyl}-amide]
- EC50 (human CYP11B1): 442 nM
- EC50 (human CYP11B2): 7 nM

Compound: CCS(=O)(=O)NCc1cncc(-c2cc3c(cc2Cl)N(C)C(=O)CC3)c1 [Example 207, Ethanesulfonic acid [5-(7-chloro-1-methyl-2-oxo-1,2,3,4-tetrahydro-quinolin-6-yl)-pyridin-3-ylmethyl]-amide]
- EC50 (human CYP11B1): 2540 nM
- EC50 (human CYP11B2): 44 nM

Compound: CN1C(=O)CCc2cc(-c3cncc(CNC(=O)C(C)(C)O)c3)ccc21 [Example 79]
- EC50 (human CYP11B1): 302 nM
- EC50 (human CYP11B2): 35 nM

Compound: CN1C(=O)CCc2cc(-c3cncc(CNS(=O)(=O)CC(F)(F)F)c3)ccc21 [Example 162, 2,2,2-Trifluoro-ethanesulfonic acid [5-(1-methyl-2-oxo-1,2,3,4-tetrahydro-quinolin-6-yl)-pyridin-3-ylmethyl]-amide]
- EC50 (human CYP11B1): 2850 nM
- EC50 (human CYP11B2): 62 nM

Compound: CCC(=O)N1CC[C@@H](Oc2cncc(-c3ccc4c(c3)CCC(=O)N4C)c2)C1 [Example 121]
- EC50 (human CYP11B1): 1370 nM
- EC50 (human CYP11B2): 19 nM

Compound: CN1C(=O)CCc2cc(-c3cncc(CNC(=O)c4ncoc4C4CC4)c3)ccc21 [Example 110]
- EC50 (human CYP11B1): 187 nM
- EC50 (human CYP11B2): 6 nM

Compound: CCC(=O)NC(C)c1cncc(-c2cc3c(cc2F)N(C)C(=O)CC3)c1C (single isomer, unassigned) [Example 264, N-{(R or S)-1-[5-(7-Fluoro-1-methyl-2-oxo-1,2,3,4-tetrahydro-quinolin-6-yl)-4-methyl-pyridin-3-yl]ethyl}-propionamide]
- EC50 (human CYP11B1): 2920 nM
- EC50 (human CYP11B2): 24 nM

Compound: CN1C(=O)CCc2cc(-c3cncc(O[C@H]4CCCNC4)c3)ccc21 [Example 61, 1-Methyl-6-[5-((S)-piperidin-3-yloxy)-pyridin-3-yl]-3,4-dihydro-1H-quinolin-2-one]
- EC50 (human CYP11B1): 20100 nM
- EC50 (human CYP11B2): 508 nM

Compound: CCS(=O)(=O)Nc1cncc(-c2ccc3c(c2)CCC(=O)N3C)c1 [Example 1, Ethanesulfonic acid [5-(1-methyl-2-oxo-1,2,3,4-tetrahydro-quinolin-6-yl)-pyridin-3-yl]-amide]
- EC50 (human CYP11B1): 3700 nM
- EC50 (human CYP11B2): 170 nM

Compound: CN1C(=O)CCc2cc(-c3cncc(CNC(=O)c4nccn4C)c3)ccc21 [Example 83]
- EC50 (human CYP11B1): 46 nM
- EC50 (human CYP11B2): 9 nM

Compound: CN1C(=O)CCc2cc(-c3cncc(CNC(=O)c4ncccc4Cl)c3)ccc21 [Example 118, 3-Chloro-pyridine-2-carboxylic acid [5-(1-methyl-2-oxo-1,2,3,4-tetrahydro-quinolin-6-yl)-pyridin-3-ylmethyl]-amide]
- EC50 (human CYP11B1): 682 nM
- EC50 (human CYP11B2): 4 nM

Compound: CN1C(=O)CCc2cc(-c3cncc(C(C)(C)NC(=O)c4ncccc4Cl)c3)ccc21 [Example 138]
- EC50 (human CYP11B1): 267 nM
- EC50 (human CYP11B2): 3 nM

Compound: Cc1cc(F)cc(C)c1C(=O)NCc1cncc(-c2ccc3c(c2)CCC(=O)N3C)c1 [Example 93]
- EC50 (human CYP11B1): 613 nM
- EC50 (human CYP11B2): 23 nM

Compound: CN1C(=O)CCc2cc(-c3cncc(CN)c3)ccc21 [Example 36, 6-(5-Aminomethyl-pyridin-3-yl)-1-methyl-3,4-dihydro-1H-quinolin-2-one]
- EC50 (human CYP11B1): 2570 nM
- EC50 (human CYP11B2): 71 nM

Compound: CC(C)CC(=O)NCc1cncc(-c2ccc3c(c2)CCC(=O)N3C)c1 [Example 77]
- EC50 (human CYP11B1): 223 nM
- EC50 (human CYP11B2): 42 nM
